Results published in patent US20230085307A1, “PYRIDAZINONE COMPOUND AND HERBICIDE” (NISSAN CHEMICAL CORPORATION, priority 2019, published 2023).

tested on: lambsquarters; assay: Test Example 4: herbicidal effect by soil treatment (Table 19, symbol O); assay type: in vivo, lambsquarters (Chenopodium album); conditions: amount of applied herbicide 320 g/ha
How it was run: (§1)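 Herbicidal effect was rated 3 weeks after treatment, using the scoring criteria of an earlier test. The compound, formulated as an emulsion and diluted in water to a set herbicide amount, had been sprayed uniformly on soil over freshly sown seeds. Growth took place in a greenhouse at 25° C. to 30° C.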

Structure (SMILES)	herbicidal effect, O: lambsquarters
CCCC(=O)Oc1c(C)nn(C)c(=O)c1-c1c(-c2ccccc2OCC)sc2cc(F)ccc12 [3-007]	0 (Herbicidal rate of 5% or less (almost no effect))
COc1ccccc1-c1sc2cc(F)ccc2c1-c1c(OC(=O)c2ccco2)c(C)nn(C)c1=O [3-023]	2 (Herbicidal rate of 20% or more and less than 40%)

tested on: rice flat sedge; assay: Test Example 3: herbicidal effect by foliage application, Wagner pot (Table 18, symbol E); assay type: in vivo, rice flat sedge (Cyperus iria); conditions: amount of applied herbicide 320 g/ha
How it was run: (§2)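 Plants were sown in alluvial soil held under 0.1–0.5 cm standing water and grown 14 days in a greenhouse at 25–30 °C. An emulsifiable formulation, water-diluted to the set dose, was then sprayed onto the foliage, and effects were scored three weeks later using previously defined criteria.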

Structure (SMILES)	herbicidal effect on E: rice flat sedge
CCCC(=O)Oc1c(C)nn(C)c(=O)c1-c1c(-c2ccccc2OCC)sc2cc(F)ccc12 [3-007]	5 (Herbicidal rate of 90% or more (almost completely withered))
COc1ccccc1-c1sc2cc(F)ccc2c1-c1c(OC(=O)c2ccco2)c(C)nn(C)c1=O [3-023]	5 (Herbicidal rate of 90% or more (almost completely withered))

tested on: Italian ryegrass; assay: Test Example 5: herbicidal effect by foliage application, plastic box (Table 20, symbol K); assay type: in vivo, Italian ryegrass (Lolium multiflorum); conditions: foliage application, 320 g/ha, three weeks after application
How it was run: (§3)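 Foliar spray test: emulsion formulation diluted in water to a set application rate, sprayed onto 14-day-old plants raised in diluvial soil at 25° C to 30° C under glass. Both herbicidal effect and crop effect rated visually three weeks later.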

Structure (SMILES)	K: Italian ryegrass, herbicidal effect grade
CCCC(=O)Oc1c(C)nn(C)c(=O)c1-c1c(-c2ccccc2OCC)sc2cc(F)ccc12 [3-007]	5 (Herbicidal rate of 90% or more (almost completely withered))
COc1ccccc1-c1sc2cc(F)ccc2c1-c1c(OC(=O)c2ccco2)c(C)nn(C)c1=O [3-023]	5 (Herbicidal rate of 90% or more (almost completely withered))

tested on: Japanese bulrush; assay: Test Example 2: herbicidal activity, application during weed generation under submerged conditions (Table 17, symbol B); assay type: in vivo, Japanese bulrush (Schoenoplectus juncoides); conditions: AAH 320 g/ha; application during weed generation, submerged conditions
How it was run: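 In this pot test, flooded alluvial soil (water depth 4 cm) holds all three species sown as a mixture. Once seedlings have one to two leaves, the compound's emulsion, thinned with water to the intended dose, is poured on the water; grading follows after three weeks on the earlier criteria.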

Structure (SMILES)	herbicidal effect rating, B: Japanese bulrush
CCCC(=O)Oc1c(C)nn(C)c(=O)c1-c1c(-c2ccccc2OCC)sc2cc(F)ccc12 [3-007]	4 (Herbicidal rate of 70% or more and less than 90%)
COc1ccccc1-c1sc2cc(F)ccc2c1-c1c(OC(=O)c2ccco2)c(C)nn(C)c1=O [3-023]	2 (Herbicidal rate of 20% or more and less than 40%)

tested on: blackgrass; assay: Test Example 5: herbicidal effect by foliage application, plastic box (Table 20, symbol J); assay type: in vivo, blackgrass (Alopecurus myosuroides); conditions: foliage application, 320 g/ha, three weeks after application
How it was run: as §3

Structure (SMILES)	J: blackgrass, herbicidal effect grade
CCCC(=O)Oc1c(C)nn(C)c(=O)c1-c1c(-c2ccccc2OCC)sc2cc(F)ccc12 [3-007]	5 (Herbicidal rate of 90% or more (almost completely withered))
COc1ccccc1-c1sc2cc(F)ccc2c1-c1c(OC(=O)c2ccco2)c(C)nn(C)c1=O [3-023]	5 (Herbicidal rate of 90% or more (almost completely withered))

tested on: velvetleaf; assay: Test Example 5: herbicidal effect by foliage application, plastic box (Table 20, symbol M); assay type: in vivo, velvetleaf (Abutilon theophrasti); conditions: foliage application, 320 g/ha, three weeks after application
How it was run: as §3

Structure (SMILES)	M: velvetleaf, herbicidal effect grade
CCCC(=O)Oc1c(C)nn(C)c(=O)c1-c1c(-c2ccccc2OCC)sc2cc(F)ccc12 [3-007]	5 (Herbicidal rate of 90% or more (almost completely withered))
COc1ccccc1-c1sc2cc(F)ccc2c1-c1c(OC(=O)c2ccco2)c(C)nn(C)c1=O [3-023]	5 (Herbicidal rate of 90% or more (almost completely withered))

tested on: lambsquarters; assay: Test Example 5: herbicidal effect by foliage application, plastic box (Table 20, symbol O); assay type: in vivo, lambsquarters (Chenopodium album); conditions: foliage application, 320 g/ha, three weeks after application
How it was run: as §3

Structure (SMILES)	O: lambsquarters, herbicidal effect grade
CCCC(=O)Oc1c(C)nn(C)c(=O)c1-c1c(-c2ccccc2OCC)sc2cc(F)ccc12 [3-007]	5 (Herbicidal rate of 90% or more (almost completely withered))
COc1ccccc1-c1sc2cc(F)ccc2c1-c1c(OC(=O)c2ccco2)c(C)nn(C)c1=O [3-023]	3 (Herbicidal rate of 40% or more and less than 70%)

tested on: green foxtail; assay: Test Example 4: herbicidal effect by soil treatment (Table 19, symbol G); assay type: in vivo, green foxtail (Setaria viridis); conditions: amount of applied herbicide 320 g/ha
How it was run: as §1

Structure (SMILES)	herbicidal effect, G: green foxtail
CCCC(=O)Oc1c(C)nn(C)c(=O)c1-c1c(-c2ccccc2OCC)sc2cc(F)ccc12 [3-007]	3 (Herbicidal rate of 40% or more and less than 70%)
COc1ccccc1-c1sc2cc(F)ccc2c1-c1c(OC(=O)c2ccco2)c(C)nn(C)c1=O [3-023]	4 (Herbicidal rate of 70% or more and less than 90%)

tested on: Chinese sprangletop; assay: Test Example 3: herbicidal effect by foliage application, Wagner pot (Table 18, symbol D); assay type: in vivo, chinese sprangletop (Leptochloa chinensis); conditions: amount of applied herbicide 320 g/ha
How it was run: as §2

Structure (SMILES)	herbicidal effect on D: Chinese sprangletop
CCCC(=O)Oc1c(C)nn(C)c(=O)c1-c1c(-c2ccccc2OCC)sc2cc(F)ccc12 [3-007]	5 (Herbicidal rate of 90% or more (almost completely withered))
COc1ccccc1-c1sc2cc(F)ccc2c1-c1c(OC(=O)c2ccco2)c(C)nn(C)c1=O [3-023]	3 (Herbicidal rate of 40% or more and less than 70%)

tested on: blackgrass; assay: Test Example 4: herbicidal effect by soil treatment (Table 19, symbol J); assay type: in vivo, blackgrass (Alopecurus myosuroides); conditions: amount of applied herbicide 320 g/ha
How it was run: as §1

Structure (SMILES)	herbicidal effect, J: blackgrass
CCCC(=O)Oc1c(C)nn(C)c(=O)c1-c1c(-c2ccccc2OCC)sc2cc(F)ccc12 [3-007]	3 (Herbicidal rate of 40% or more and less than 70%)
COc1ccccc1-c1sc2cc(F)ccc2c1-c1c(OC(=O)c2ccco2)c(C)nn(C)c1=O [3-023]	4 (Herbicidal rate of 70% or more and less than 90%)

tested on: Italian ryegrass; assay: Test Example 4: herbicidal effect by soil treatment (Table 19, symbol K); assay type: in vivo, Italian ryegrass (Lolium multiflorum); conditions: amount of applied herbicide 320 g/ha
How it was run: as §1

Structure (SMILES)	herbicidal effect, K: Italian ryegrass
CCCC(=O)Oc1c(C)nn(C)c(=O)c1-c1c(-c2ccccc2OCC)sc2cc(F)ccc12 [3-007]	4 (Herbicidal rate of 70% or more and less than 90%)
COc1ccccc1-c1sc2cc(F)ccc2c1-c1c(OC(=O)c2ccco2)c(C)nn(C)c1=O [3-023]	5 (Herbicidal rate of 90% or more (almost completely withered))

tested on: wild oat; assay: Test Example 5: herbicidal effect by foliage application, plastic box (Table 20, symbol I); assay type: in vivo, wild oat (Avena fatua); conditions: foliage application, 320 g/ha, three weeks after application
How it was run: as §3

Structure (SMILES)	I: wild oat, herbicidal effect grade
CCCC(=O)Oc1c(C)nn(C)c(=O)c1-c1c(-c2ccccc2OCC)sc2cc(F)ccc12 [3-007]	5 (Herbicidal rate of 90% or more (almost completely withered))
COc1ccccc1-c1sc2cc(F)ccc2c1-c1c(OC(=O)c2ccco2)c(C)nn(C)c1=O [3-023]	4 (Herbicidal rate of 70% or more and less than 90%)

tested on: barnyard grass; assay: Test Example 5: herbicidal effect by foliage application, plastic box (Table 20, symbol H); assay type: in vivo, barnyard grass (Echinochloa crus-galli); conditions: foliage application, 320 g/ha, three weeks after application
How it was run: as §3

Structure (SMILES)	H: barnyard grass, herbicidal effect grade
CCCC(=O)Oc1c(C)nn(C)c(=O)c1-c1c(-c2ccccc2OCC)sc2cc(F)ccc12 [3-007]	5 (Herbicidal rate of 90% or more (almost completely withered))
COc1ccccc1-c1sc2cc(F)ccc2c1-c1c(OC(=O)c2ccco2)c(C)nn(C)c1=O [3-023]	5 (Herbicidal rate of 90% or more (almost completely withered))

tested on: barnyard grass; assay: Test Example 4: herbicidal effect by soil treatment (Table 19, symbol H); assay type: in vivo, barnyard grass (Echinochloa crus-galli); conditions: amount of applied herbicide 320 g/ha
How it was run: as §1

Structure (SMILES)	herbicidal effect, H: barnyard grass
CCCC(=O)Oc1c(C)nn(C)c(=O)c1-c1c(-c2ccccc2OCC)sc2cc(F)ccc12 [3-007]	0 (Herbicidal rate of 5% or less (almost no effect))
COc1ccccc1-c1sc2cc(F)ccc2c1-c1c(OC(=O)c2ccco2)c(C)nn(C)c1=O [3-023]	4 (Herbicidal rate of 70% or more and less than 90%)

tested on: windgrass; assay: Test Example 5: herbicidal effect by foliage application, plastic box (Table 20, symbol L); assay type: in vivo, windgrass (Apera spica-venti); conditions: foliage application, 320 g/ha, three weeks after application
How it was run: as §3

Structure (SMILES)	L: windgrass, herbicidal effect grade
CCCC(=O)Oc1c(C)nn(C)c(=O)c1-c1c(-c2ccccc2OCC)sc2cc(F)ccc12 [3-007]	5 (Herbicidal rate of 90% or more (almost completely withered))
COc1ccccc1-c1sc2cc(F)ccc2c1-c1c(OC(=O)c2ccco2)c(C)nn(C)c1=O [3-023]	5 (Herbicidal rate of 90% or more (almost completely withered))

tested on: persian speedwell; assay: Test Example 5: herbicidal effect by foliage application, plastic box (Table 20, symbol R); assay type: in vivo, Persian speedwell (Veronica persica); conditions: foliage application, 320 g/ha, three weeks after application
How it was run: as §3

Structure (SMILES)	R: persian speedwell, herbicidal effect grade
CCCC(=O)Oc1c(C)nn(C)c(=O)c1-c1c(-c2ccccc2OCC)sc2cc(F)ccc12 [3-007]	5 (Herbicidal rate of 90% or more (almost completely withered))
COc1ccccc1-c1sc2cc(F)ccc2c1-c1c(OC(=O)c2ccco2)c(C)nn(C)c1=O [3-023]	3 (Herbicidal rate of 40% or more and less than 70%)

tested on: chickweed; assay: Test Example 5: herbicidal effect by foliage application, plastic box (Table 20, symbol P); assay type: in vivo, common chickweed (Stellaria media); conditions: foliage application, 320 g/ha, three weeks after application
How it was run: as §3

Structure (SMILES)	P: chickweed, herbicidal effect grade
CCCC(=O)Oc1c(C)nn(C)c(=O)c1-c1c(-c2ccccc2OCC)sc2cc(F)ccc12 [3-007]	5 (Herbicidal rate of 90% or more (almost completely withered))
COc1ccccc1-c1sc2cc(F)ccc2c1-c1c(OC(=O)c2ccco2)c(C)nn(C)c1=O [3-023]	5 (Herbicidal rate of 90% or more (almost completely withered))
